Target: NACHT, LRR and PYD domains-containing protein 3 (Homo sapiens, UniProt Q96P20)
Experiment: Evaluation of NLRP3 Inflammasome Inhibitory Activity Assay
Experimental: The NLRP3 inflammasome inhibitory activity of test compounds were evaluated on the basis of the inhibitory activity of the IL-1β production in THP1-Null cells (Product Number: thp-null, InvivoGen). […] The supernatant of the culture was removed, and thereto was added media for assay (25 μL/well) containing 1 μg/mL Lipopolysaccharides (Product Number: L2654, Sigma-Aldrich (registered trademark)). […] The supernatant of the culture was removed. […] A solution containing a test compound (20 μL/well) was added to test compound-setting wells. […] The supernatant of the culture was cryonically stored (set at −20° C.) until measurement of IL-1β.

Chain of NACHT, LRR and PYD domains-containing protein 3 (Q96P20 whole entry, the tested form may be a part): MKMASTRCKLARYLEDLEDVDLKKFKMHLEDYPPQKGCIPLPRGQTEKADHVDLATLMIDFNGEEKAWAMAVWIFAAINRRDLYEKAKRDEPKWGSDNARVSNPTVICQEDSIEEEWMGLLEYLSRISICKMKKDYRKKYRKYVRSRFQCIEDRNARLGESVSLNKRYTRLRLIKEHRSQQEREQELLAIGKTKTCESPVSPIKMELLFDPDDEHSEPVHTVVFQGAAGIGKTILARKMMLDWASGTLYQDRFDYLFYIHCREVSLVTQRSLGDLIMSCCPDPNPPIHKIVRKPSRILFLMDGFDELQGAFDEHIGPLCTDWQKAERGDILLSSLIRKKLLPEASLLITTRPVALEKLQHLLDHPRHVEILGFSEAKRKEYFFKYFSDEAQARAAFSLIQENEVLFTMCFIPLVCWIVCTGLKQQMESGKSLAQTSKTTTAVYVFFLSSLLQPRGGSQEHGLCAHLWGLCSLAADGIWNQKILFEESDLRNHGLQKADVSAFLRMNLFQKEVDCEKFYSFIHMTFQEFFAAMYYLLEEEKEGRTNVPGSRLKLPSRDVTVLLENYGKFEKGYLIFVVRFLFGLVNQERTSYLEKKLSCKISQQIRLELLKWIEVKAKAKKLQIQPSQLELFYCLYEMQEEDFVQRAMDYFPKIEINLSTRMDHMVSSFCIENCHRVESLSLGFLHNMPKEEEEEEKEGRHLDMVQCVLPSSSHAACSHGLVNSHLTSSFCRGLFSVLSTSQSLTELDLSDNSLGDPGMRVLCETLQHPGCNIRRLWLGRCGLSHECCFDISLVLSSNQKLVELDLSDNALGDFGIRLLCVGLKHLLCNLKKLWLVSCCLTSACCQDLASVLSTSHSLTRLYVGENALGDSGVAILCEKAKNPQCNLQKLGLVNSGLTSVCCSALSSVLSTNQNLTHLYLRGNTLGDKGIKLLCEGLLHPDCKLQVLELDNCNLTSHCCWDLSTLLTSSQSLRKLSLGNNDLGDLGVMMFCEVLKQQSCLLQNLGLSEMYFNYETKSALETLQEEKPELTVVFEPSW

SMILES	IC50 [nM]
COC1COCCN(c2nc3nn(-c4c(C)cc(Br)cc4C)cc3c(=O)[nH]2)C1 (stereo unspecified) [US20240287079, Example 216]	12
Cc1cc(Br)cc(C)c1-n1cc2c(=O)[nH]c(N3CCO[C@H](C)C3)nc2n1 [US20240287079, Example 215]	17
CNc1nc2nn(-c3c(C)cc(Br)cc3C)cc2c(=O)n1C [US20240287079, Example 247]	260
Cc1cc(Br)cc(C)c1-n1cc2c(=O)[nH]c(N3C[C@@H](C)O[C@@H](C)C3)nc2n1 [US20240287079, Example 224]	80
Cc1cc(Br)cc(C)c1-n1cc2c(=O)[nH]c(N3C4CCC3CC(F)(F)C4)nc2n1 [US20240287079, Example 238]	110
Cc1cc(Br)cc(C)c1-n1cc2c(=O)[nH]c(N3CCOC4(COC4)C3)nc2n1 [US20240287079, Example 264]	32
COC1(C)CN(c2nc3nn(-c4c(C)cc(Br)cc4C)cc3c(=O)[nH]2)C1 [US20240287079, Example 203]	27
Cc1cc(Br)cc(C)c1-n1cc2c(=O)[nH]c(N3CCOC4(CC4)C3)nc2n1 [US20240287079, Example 225]	19
Cc1cc(Br)cc(C)c1-n1cc2c(=O)[nH]c(N3CCC4CC43)nc2n1 (stereo unspecified) [US20240287079, Example 240]	7.1
COC1(C)CN(c2nc3nn(-c4c(C)cc(Br)cc4C)cc3c(=O)n2C)C1 [US20240287079, Example 212]	130
Cc1cc(Br)cc(C)c1-n1cc2c(=O)[nH]c(N3CCOC[C@@H]3C)nc2n1 [US20240287079, Example 223]	160
CCC1COCCN1c1nc2nn(-c3c(C)cc(Br)cc3C)cc2c(=O)[nH]1 (stereo unspecified) [US20240287079, Example 248]	30
Cc1cc(Br)cc(C)c1-n1cc2c(=O)[nH]c(N3CC4CCC(C3)C4(F)F)nc2n1 [US20240287079, Example 239]	11
Cc1cc(Br)cc(C)c1-n1cc2c(=O)[nH]c(N3CCOC[C@H]3C)nc2n1 [US20240287079, Example 213]	6.8
Cc1cc(Br)cc(C)c1-n1cc2c(=O)[nH]c(N3CCO[C@@H](C)C3)nc2n1 [US20240287079, Example 214]	19
Cc1cc(Br)cc(C)c1-n1cc2c(=O)[nH]c(N3CC4(COC4)C3)nc2n1 [US20240287079, Example 204]	28

— BindingDB's records for patent US20240287079 (Japan Tobacco, 2024)
